Assay results from publication PMC7997574, “Lead Optimization of Benzoxazolone Carboxamides as Orally Bioavailable and CNS Penetrant Acid Ceramidase Inhibitors” (Journal of Medicinal Chemistry, 2020).
≈ marks a conversion by molar mass, not a printed value. Counter-ions that a name gives are not always drawn. Like-named read-outs stand apart in the source and are kept apart here.

Legend:
AC = target: T1, AC (Homo sapiens, UniProt Q13510); test: Fluorogenic hAC assay on hAC-enriched lysate of HEK293 cells; type: biochemical; design: expressed in transfected cells
T1 sequence (Q13510 22-395): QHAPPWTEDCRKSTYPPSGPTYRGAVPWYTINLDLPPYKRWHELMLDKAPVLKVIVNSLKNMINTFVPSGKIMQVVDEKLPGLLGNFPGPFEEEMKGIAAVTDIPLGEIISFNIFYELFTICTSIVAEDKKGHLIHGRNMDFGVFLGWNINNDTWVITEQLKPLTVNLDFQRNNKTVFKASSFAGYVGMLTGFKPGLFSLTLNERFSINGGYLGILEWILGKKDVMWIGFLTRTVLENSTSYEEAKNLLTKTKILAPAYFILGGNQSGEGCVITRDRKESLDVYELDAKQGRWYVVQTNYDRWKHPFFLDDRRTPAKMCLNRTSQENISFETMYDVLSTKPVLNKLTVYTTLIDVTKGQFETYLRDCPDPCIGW
Procedure: HEK293 cells stably expressing hAC were grown in Dulbecco’s modified Eagle medium (DMEM) containing 10% FBS, 1% glutamine, 1 mM sodium pyruvate, and 500 μg mL^–1 G418. Cells were harvested, and pellets were stored at −80 °C until lysosomal-enriched lysate preparation. Cells were suspended in 20 mM Tris HCl (pH 7.5) with 0.32 M sucrose, sonicated, and centrifuged at 800 × g for 30 min at 4 °C. Supernatants were then centrifuged at 12000 × g for 30 min at 4 °C. Pellets were resuspended in PBS (pH 7.4) and subjected to three freeze–thaw cycles at −80 °C. The suspension was finally centrifuged at 105000 × g for 1 h at 4 °C, and protein concentration was measured in the supernatant with the bicinchoninic acid based protein assay. This hAC-enriched preparation allowed us to further optimize the enzymatic assay and to use small amounts of lysate (2 μg per well) at a 5 μM substrate (Rbm14–12) around its KM (KM = 5.0 μM).
The assay was performed in Optiplate 96-well black plates, with each reaction well containing a mixture of 25 mM NaOAc buffer (pH 4.5) and a fixed amount of protein (2 μg) in a volume of 85 μL. After 10 min of preincubation with test compounds (diluted 20× from DMSO stock solutions at different concentrations), the fluorogenic probe was added (diluted 40× from EtOH stock solution, final concentration 5 μM). After 3 h of incubation at 37 °C, reactions were stopped with 50 μL of MeOH and 100 μL of a 2.5 mg mL^–1 NaIO4 fresh solution in 100 mM glycine/NaOH buffer (pH 10.6). The plates were further incubated for 2 h at 37 °C in the dark, and fluorescence intensities were measured at excitation/emission wavelengths of 355/460 nm. Negative control samples consisted of the same incubation mixture in the absence of protein-enriched extracts. Data were plotted as a function of compound concentrations. IC50 values were calculated by nonlinear regression analysis using GraphPad Prism 5 (GraphPad Software Inc., CA, USA) applying a standard slope curve fitting. The reported IC50 values are the mean of at least three independent experiments performed in three technical replicates.

[1] = Chemical stability assay in PBS pH 7.4; type: physicochemical; details: phosphate-buffered saline, read-out: chemical stability t1/2
Procedure: Chemical stability of selected compounds was evaluated under physiological pH conditions (0.01 M phosphate-buffered saline, pH 7.4) for up to 8 h. The buffer was added with 10% MeCN. Stock solutions of each compound (10 mM) were freshly prepared in MeCN. Each compound was incubated at a final concentration of 1 μM in preheated buffer (37 °C). The sample solutions were divided into aliquots in glass vials (preheated at 37 °C) for each time point. The samples were maintained at 37 °C in the UPLC/MS autosampler during the study (no shaking). A reference solution of each compound (final concentration: 1 μM) in preheated MeCN was prepared from the stock solutions and maintained at 37 °C in the UPLC/MS autosampler during the study. For each time point, the samples were analyzed directly by LC/MS without any further sample preparation. The samples were analyzed by integrating the corresponding MRM peak areas. The relative compound concentration was calculated by dividing the peak area at each time point by the peak area at t = 0 min. The reference solution was analyzed at the beginning (t = 0 min) and at the end of the study (t = 8 h). The apparent half-life (t1/2) of the disappearance of the compound was calculated using the best fitting equation by GraphPad Prism (GraphPad Software, Inc., USA). The analyses were performed on a Waters ACQUITY UPLC/MS TQD system consisting of a triple quadrupole detector (TQD) MS equipped with an ESI interface and a photodiode array detector. The analyses were run on an ACQUITY UPLC BEH C18 1.7 μm 2.1 × 50 mm column with a VanGuard BEH C18 1.7 μm preolumn at 40 °C. For each compound, the appropriate mobile phase was chosen. ESI was applied in positive mode. Values are the mean of at least two independent experiments performed in two technical replicates.

[2] = Aqueous kinetic solubility assay; type: physicochemical; details: PBS, pH 7.4
Procedure: The aqueous kinetic solubility was determined from a 10 mM MeCN stock solution of test compound in Phosphate-Buffered Saline (PBS) at pH 7.4. The study was performed by incubation of an aliquot of 10 mM MeCN stock solution in PBS (pH 7.4) at a target concentration of 250 μM. The incubation was carried out under shaking at 25 °C for 1 h followed by centrifugation at 21100 × g for 30 min. The supernatant was analyzed by UPLC/MS for the quantification of the dissolved compound (in μM) by UV at a specific wavelength (215 nm). […] The UPLC/MS analyses were performed on a Waters ACQUITY UPLC/MS system consisting of a single quadrupole detector (SQD) Mass Spectrometer (MS) equipped with an Electrospray Ionization (ESI) interface and a Photodiode Array Detector (PDA). The PDA range was 210–400 nm. ESI in positive mode was used in the mass scan range of 100–650 Da. The analyses were run on an ACQUITY UPLC BEH C18 column (50 × 2.1 mm ID, particle size 1.7 μm) with a VanGuard BEH C18 precolumn (5 × 2.1 mm ID, particle size 1.7 μm), using 10 mM NH4OAc in H2O at pH 5 adjusted with AcOH (A) and 10 mM NH4OAc in MeCN/H2O (95:5) at pH 5 (B) as the mobile phase. Values are reported as mean values of ≥2 experiments performed.

[3] = In vitro plasma stability study; type: in vitro ADME; details: mouse plasma
Procedure: Freshly prepared 10 mM MeCN stock solution of test compound was diluted 50-fold with DMSO/H2O (1:1) and incubated at 37 °C for 2 h with mouse plasma added in 5% DMSO (preheated at 37 °C for 10 min). The final concentration was 2 μM. At each time point (0, 5, 15, 30, 60, and 120 min), 50 μL of incubation mixture was diluted with 200 μL of cold MeCN spiked with 200 nM internal standard followed by centrifugation at 3300 × g for 20 min. The supernatant was further diluted with H2O (1:1) for analysis. The concentration of test compound was quantified by LC/MS/MS on a Waters ACQUITY UPLC/MS TQD system consisting of a TQD MS equipped with an ESI interface. The analyses were run on an ACQUITY UPLC BEH C18 (50 × 2.1 mm ID, particle size 1.7 μm) with a VanGuard BEH C18 precolumn (5 × 2.1 mm ID, particle size 1.7 μm) at 40 °C. For each compound, the appropriate mobile phase was chosen. ESI was applied in positive mode. The response factors, calculated on the basis of the internal standard peak area, were plotted over time. When possible, response vs time profiles were fitted with Prism (GraphPad Software, Inc., USA) to estimate compound t1/2 in plasma. Values are the mean of at least two independent experiments performed in two technical replicates.

[4] = In vitro microsomal stability study; type: in vitro ADME; details: mouse liver microsomes; for half-life at 1 h, 4.6 µM / half-life at 4.6 μM: pH 7.4, read-out: m-LM t1/2
Procedure: Freshly prepared 10 mM MeCN stock solution of test compound was preincubated at 37 °C for 15 min with mouse liver microsomes added in 0.1 M Tris HCl buffer (pH 7.4). The final concentration was 4.6 μM. After preincubation, the cofactors (NADPH, G6P, G6PDH, and MgCl2 predissolved in 0.1 M Tris HCl) were added to the incubation mixture, and the incubation was continued at 37 °C for 1 h. At each time point (0, 5, 15, 30, and 60 min), 30 μL of incubation mixture was diluted with 200 μL of cold MeCN spiked with 200 nM internal standard followed by centrifugation at 3300 × g for 15 min. The supernatant was further diluted with H2O (1:1) for analysis. The concentration of the test compound was quantified by LC/MS/MS on a Waters ACQUITY UPLC/MS TQD system consisting of a TQD MS equipped with an ESI interface. The analyses were run on an ACQUITY UPLC BEH C18 (50 × 2.1 mm ID, particle size 1.7 μm) with a VanGuard BEH C18 precolumn (5 × 2.1 mm ID, particle size 1.7 μm) at 40 °C. For each compound, the appropriate mobile phase was chosen. ESI was applied in positive mode. The percentage of test compound remaining at each time point relative to t = 0 was calculated. t1/2 was determined by a one-phase decay equation using a nonlinear regression of compound concentration vs time. Values are the mean of at least two independent experiments performed in two technical replicates.

[5] = read-out: mouse plasma stability t1/2
[6] = supplementary csv, read-out: hAC, IC50
[7] = hAC expressed in HEK-293 cells, read-out: hAC IC50 (μM)±SD

Row | solubility at 1 h [2] | half-life at 1 h, 4.6 µM [4] | half-life at 2 µM ([3]; read-out: m-plasma t1/2) | IC50 (AC; [7]) | SMILES | further results
1 | < 1 µM | – | – | 0.116 ± 0.069 µM | CN1CCN(c2ccc3c(c2)oc(=O)n3C(=O)NCCCCc2ccccc2)CC1 [23f, 6-(4-Methylpiperazin-1-yl)-2-oxo-N-(4-phenylbutyl)-1,3-benzoxazole-3-carboxamide] | half-life at 4.6 μM [4]: < 5 min; half-life at 2 μM ([3]; read-out: m-plasma t1/2): < 5 min
2 | 70 µM (≈ 29.8 µg/mL) | – | 20 min | 0.024 ± 0.002 µM | CN1CCC(c2cc3oc(=O)n(C(=O)NCCCCc4ccccc4)c3cc2F)CC1 [22p, 5-Fluoro-6-(1-methyl-4-piperidyl)-2-oxo-N-(4-phenylbutyl)-1,3-benzoxazole-3-carboxamide] | m-LM [% at 60 min] ([4]; % remaining at 60 min): 70%; half-life at 4.6 μM [4]: > 60 min
3 | 82 µM | – | – | – | O=C(NCCCCc1ccccc1)n1c2c(oc1=O)CCNC2 [12b, 2-Oxo-N-(4-phenylbutyl)-4,5,6,7-tetrahydrooxazolo[4,5-c]pyridine-3-carboxamide Hydrochloride] | half-life at 2 μM [3, 5]: > 120 min; IC50 (AC; [6]): 0.247 ± 0.156 µM; half-life at 1 μM ([1]; PBS at pH 7.4): > 480 min

Second part, the compound before the results:

Row | SMILES | solubility at 1 h [2] | half-life at 1 h, 4.6 µM [4] | half-life at 2 µM ([3]; read-out: m-plasma t1/2) | IC50 (AC; [7]) | further results
4 | O=C(NCCCCc1ccccc1)n1c(=O)oc2ccncc21 [8a, 2-Oxo-N-(4-phenylbutyl)oxazolo[4,5-c]pyridine-3-carboxamide] | – | – | – | – | IC50 (AC; read-out: hAC IC50): 0.006 µM; half-life at 1 μM ([1]; PBS, pH 7.4): < 15 min
5 | O=C(NCCCCc1ccccc1)n1c(=O)oc2cnccc21 [8b, 2-Oxo-N-(4-phenylbutyl)oxazolo[5,4-c]pyridine-1-carboxamide] | – | – | – | – | IC50 (AC; read-out: hAC IC50): 0.003 µM; half-life at 1 μM ([1]; PBS, pH 7.4): < 15 min
6 | O=C(NCCCCc1ccccc1)n1c2c(oc1=O)CNCC2 [17b, 2-Oxo-N-(4-phenylbutyl)-4,5,6,7-tetrahydrooxazolo[5,4-c]pyridine-1-carboxamide Hydrochloride] | 230 µM | – | – | – | half-life at 2 μM [3, 5]: > 120 min; IC50 (AC; [6]): 0.341 ± 0.012 µM; half-life at 1 μM ([1]; PBS at pH 7.4): > 480 min
7 | CC(C)N1CCC(c2ccc3c(c2)oc(=O)n3C(=O)NCCCCc2ccccc2)CC1 [22g, 6-(1-Isopropyl-4-piperidyl)-2-oxo-N-(4-phenylbutyl)-1,3-benzoxazole-3-carboxamide] | 50 µM (≈ 21.8 µg/mL) | 60 min | 40 min | 0.094 ± 0.042 µM | –
8 | CC(C)CNC(=O)n1c(=O)oc2ccc(C3CCN(C)CC3)cc21 [24c, N-Isobutyl-5-(1-methyl-4-piperidyl)-2-oxo-1,3-benzoxazole-3-carboxamide] | 60 µM (≈ 19.9 µg/mL) | 40 min | 30 min | 0.295 ± 0.06 µM | –
9 | CC(C)CNC(=O)n1c(=O)oc2c(C3CCN(C)CC3)cccc21 [compound 25, N-Isobutyl-7-(1-methyl-4-piperidyl)-2-oxo-1,3-benzoxazole-3-carboxamide] | 230 µM (≈ 76.2 µg/mL) | 30 min | 40 min | 0.535 ± 0.073 µM | –
